Results published in patent publication US20250340565A1, “CD73 INHIBITOR COMPOUNDS” (AdoRx Therapeutics Limited, priority 2022, published 2025).
Where a name gives a salt, the structure may show the parent alone.

How the values were obtained:
[1] = biological target: CD73 activity in U138-MG cells (Homo sapiens (Human), UniProt P21589); assay: U138-MG inhibition assay (inorganic phosphate from AMP, PiColorLock Gold); assay type: cell-based; settings: 100 μM AMP, 30 min pre-incubation, 1 hour at 37° C.
CD73 activity in U138-MG cells, sequence (P21589 27-574): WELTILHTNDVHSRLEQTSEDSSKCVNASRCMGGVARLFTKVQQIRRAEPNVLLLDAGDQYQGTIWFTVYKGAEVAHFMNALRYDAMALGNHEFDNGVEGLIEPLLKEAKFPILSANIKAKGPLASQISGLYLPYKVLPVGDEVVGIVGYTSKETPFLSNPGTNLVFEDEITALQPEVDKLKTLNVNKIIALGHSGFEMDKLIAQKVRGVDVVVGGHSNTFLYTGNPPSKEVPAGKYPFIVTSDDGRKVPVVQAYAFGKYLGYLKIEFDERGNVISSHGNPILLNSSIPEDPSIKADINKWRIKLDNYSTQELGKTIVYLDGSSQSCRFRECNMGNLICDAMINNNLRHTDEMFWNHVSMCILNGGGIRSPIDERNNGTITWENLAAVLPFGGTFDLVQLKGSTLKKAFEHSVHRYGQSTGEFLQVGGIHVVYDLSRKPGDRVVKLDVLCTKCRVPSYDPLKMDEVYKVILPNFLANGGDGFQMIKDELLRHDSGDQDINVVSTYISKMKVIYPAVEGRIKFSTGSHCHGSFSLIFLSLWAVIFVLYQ
Description: U138-MG cells from ATCC are cultured in DMEM (Gibco 31966) with 10% FBS. Cells are seeded into 96-well culture plates (5,000 cell/well) in 100 μL of media for 24 hr. Cells are washed twice with 200 μL of assay buffer (20 mM HEPES, pH 7.4; 137 mM NaCl; 5.4 mM KCl; 1.3 mM CaCl2; 4.2 mM NaHCO3; 1 mg/mL glucose) to remove residual inorganic phosphate. CD73 inhibitor is added to each well in 100 μl volume and preincubated for 30 mins at 37° C. An equal volume of AMP substrate (Sigma A1572) is added to each well at a final concentration of 100 μM and incubated at 37° C. for 1 hour. Control wells containing cells but lacking added AMP, define the assay signal equivalent to 100% inhibition of CD73 activity. Supernatant is removed for measurement of inorganic phosphate using the PiColorLock Gold kit (Abcam, ab 270004).
The IC50 values of test compounds are determined as the inflection point of the sigmoidal concentration response curve.

[2] = biological target: human (h)CD73 (amino acids Trp27-Lys547) (Homo sapiens, UniProt P21589); assay: CD73 inhibition assay (Malachite Green phosphate detection); assay type: biochemical; settings: 250 pM hCD73, 12.5 μM AMP, 20 min pre-incubation, absorbance 620 nm
Description: Compound inhibition of human (h)CD73 (amino acids Trp27-Lys547, R&D Systems 5795-EN-500) enzymatic activity was tested via the Malachite Green Phosphate Detection Kit (R&D DY996). Experiments were performed in 20 μL Tris buffer (25 mM Tris pH 7.5, 5 mM MgCl2, 0.002% Tween20), with 250 pM of hCD73. Test compounds of interest were prepared in a threefold serial dilution in DMSO and added to the assay to give the appropriate final concentration, with the assay DMSO concentration being 1%. Compounds were pre-incubated for 20 minutes with hCD73 in a 384 well clear plate (Greiner 781101), followed by the addition of adenosine monophosphate (AMP) to 12.5 μM. The enzymatic reaction was carried out for 20 min at room temperature. 5 μL of Malachite kit reagent A was added to stop the reaction (contains 3M H2SO4) and after 10 min, 5 μL of Malachite kit reagent B was added (Malachite Green). After 30 min, absorbance at 620 nm was read on a BMG Pherastar FSX.
Data were normalised to measurements in the absence of competing compound (0% inhibition) and in the presence of 10 μM control compound (100% inhibition).

[3] = biological target: CD73 in whole blood (Homo sapiens (Human), UniProt P21589); assay: Whole blood AMP Glo assay; assay type: cell-based; settings: whole blood of healthy volunteers, 10 μM AMP, 30 min pre-incubation, 15 min at 37° C., levamisole 1.5 mM
CD73 in whole blood, sequence (P21589 27-574): as above
Description: Blood is drawn from healthy volunteers by venepuncture and anti-coagulated with Lithium Heparin (10 IU/mi). 150 μl of blood is added to U-bottom polypropylene 96-well assay plates pre-filled with 20 μl of compound dilutions prepared in RPMI also containing the Tissue Non-specific Alkaline Phosphatase inhibitor Levamisole (final assay concentration 1.5 mM). Control wells to define uninhibited CD73 contain DMSO in place of compound. Control wells to define complete stabilization of AMP attributable to CD73 contain LY3475070 (CAS: 2375815-63-5) at 30 μM final assay concentration.
Compounds are pre-incubated with whole blood at 37° C. for 30 minutes. Following this, AMP is added in a 30 μl volume for a final assay concentration of 10 μM, mixed, and the plates are incubated for 15 minutes at 37° C. Final DMSO concentration/well is 0.6% and final volume/well is 200 μL. After incubating with AMP, the plates are placed on ice and then centrifuged at 2000 g for 10 minutes at 4° C. Plasma is removed and then diluted 1:10 with pre-chilled HBSS (Ca2+& Mg2+free) and kept on ice.
The stabilized AMP concentration in diluted plasma is measured using AMP-Glo kit (Promega), in parallel with a standard curve of known AMP concentrations, with a final volume of 40 μl in white flat bottom half-well 96-well plates (Corning). Signal is measured by Luminescence. The IC50 values of test compounds are determined as the inflection point of the sigmoidal concentration response curve.

Row | Compound | IC50 [1] | IC50 [2] | IC50 [3]
1 | O=c1[nH]cc(-c2cc3c(N4CCC(CO)C4)ncnc3s2)c(=O)[nH]1 (stereo not drawn) [Example 1, 5-[4-[3-(Hydroxymethyl)pyrrolidin-1-yl]thieno[2,3-d]pyrimidin-6-yl]-1H-pyrimidine-2,4-dione] | 2340 nM | 715 nM | 8750 nM
2 | O=c1[nH]cc(-c2cc3c(N4CCC(CCO)C4)ncnc3s2)c(=O)[nH]1 (stereo not drawn) [Example 1.1, 5-[4-[3-(2-Hydroxyethyl)pyrrolidin-1-yl]thieno[2,3-d]pyrimidin-6-yl]-1H-pyrimidine-2,4-dione] | 2310 nM | 677 nM | 8760 nM
3 | O=c1[nH]cc(-c2cc3c(N4CCC(OCCO)C4)ncnc3s2)c(=O)[nH]1 (stereo not drawn) [Example 1.3, 5-[4-[3-(2-Hydroxyethoxy)pyrrolidin-1-yl]thieno[2,3-d]pyrimidin-6-yl]-1H-pyrimidine-2,4-dione] | 717 nM | 489 nM | 3160 nM
4 | O=c1[nH]cc(-c2cc3c(N4CCC(OCCN5CCCCC5)C4)ncnc3s2)c(=O)[nH]1 (stereo not drawn) [Example 2, 5-[4-[3-[2-(1-Piperidyl)ethoxy]pyrrolidin-1-yl]thieno[2,3-d]pyrimidin-6-yl]-1H-pyrimidine-2,4-dione] | 46.1 nM | 11.1 nM | 47 nM
5 | CC1(C)CCN(c2ncnc3sc(-c4c[nH]c(=O)[nH]c4=O)cc23)C1 [Example 2.1, 5-[4-(3,3-Dimethylpyrrolidin-1-yl)thieno[2,3-d]pyrimidin-6-yl]-1H-pyrimidine-2,4-dione] | 1120 nM | 401 nM | 6990 nM
6 | N#Cc1ccc(OC2CCN(c3ncnc4sc(-c5c[nH]c(=O)[nH]c5=O)cc34)C2)nc1 (stereo not drawn) [Example 3, 6-[1-[6-(2,4-Dioxo-1H-pyrimidin-5-yl)thieno[2,3-d]pyrimidin-4-yl]pyrrolidin-3-yl]oxypyridine-3-carbonitrile] | 588 nM | 59.6 nM | 2220 nM
7 | CC1(C)CN(c2ncnc3sc(-c4c[nH]c(=O)[nH]c4=O)cc23)CC1(F)F [Example 4, 5-[4-(3,3-Difluoro-4,4-dimethyl-pyrrolidin-1-yl)thieno[2,3-d]pyrimidin-6-yl]-1H-pyrimidine-2,4-dione] | 734 nM | 87.3 nM | 4010 nM
8 | O=c1[nH]cc(-c2cc3c(N4CCC(OCc5ccccn5)C4)ncnc3s2)c(=O)[nH]1 (stereo not drawn) [Example 4.1, 5-[4-[3-(2-pyridylmethoxy)pyrrolidine-1-yl]thieno[2,3-d]pyrimidin-6-yl]-1H-pyrimidine-2,4-dione formate salt] | 428 nM | 96 nM | 782 nM
9 | CN1CCOC(COC2CN(c3ncnc4sc(-c5c[nH]c(=O)[nH]c5=O)cc34)CC2(F)F)C1 (stereo not drawn) [Example 4.3, 5-[4-[3,3-Difluoro-4-[(4-methylmorpholin-2-yl)methoxy]pyrrolidine-1-yl]thieno[2,3-d]pyrimidin-6-yl]-1H-pyrimidine-2,4-dione formate salt] | 498 nM | 269 nM | 516 nM
10 | CN1CCOC(COC2CCN(c3ncnc4sc(-c5c[nH]c(=O)[nH]c5=O)cc34)C2)C1 (stereo not drawn) [Example 4.4, 5-[4-[3-[(4-Methylmorpholin-2-yl)methoxy]pyrrolidine-1-yl]thieno[2,3-d]pyrimidin-6-yl]-1H-pyrimidine-2,4-dione] | 76.6 nM | 74.3 nM | 254 nM
11 | O=c1[nH]cc(-c2cc3c(N4CC(OCCN5CCCCC5)C(F)(F)C4)ncnc3s2)c(=O)[nH]1 (stereo not drawn) [Example 5, 5-[4-[3,3-Difluoro-4-[2-(1-piperidyl)ethoxy]pyrrolidine-1-yl]thieno[2,3-d]pyrimidin-6-yl]-1H-pyrimidine-2,4-dione formate salt] | 179 nM | 32 nM | 184 nM
12 | O=c1[nH]cc(-c2nc3ncnc(N4CCC(OCCN5CCCCC5)C4)c3s2)c(=O)[nH]1 (stereo not drawn) [Example 6, 5-[7-[3-[2-(1-Piperidyl)ethoxy]pyrrolidin-1-yl]thiazolo[4,5-d]pyrimidin-2-yl]-1H-pyrimidine-2,4-dione] | 18.7 nM | 57.3 nM | 27.5 nM
13 | O=c1[nH]cc(-c2cc3c(N4CCC(OCCN5CCCCC5)C4)ncnc3o2)c(=O)[nH]1 (stereo not drawn) [Example 7, 5-[4-[3-[2-(1-Piperidyl)ethoxy]pyrrolidin-1-yl]furo[2,3-d]pyrimidin-6-yl]-1H-pyrimidine-2,4-dione formate salt] | 7.2 nM | 22.8 nM | 12.5 nM
14 | CC1(C)CN(c2ncnc3oc(-c4c[nH]c(=O)[nH]c4=O)cc23)CC1(F)F [Example 7.1, 5-[4-(3,3-Difluoro-4,4-dimethyl-pyrrolidin-1-yl)furo[2,3-d]pyrimidin-6-yl]-1H-pyrimidine-2,4-dione] | 22.8 nM | 25.4 nM | 444 nM
15 | O=c1[nH]cc(-c2cc3ncnc(N4CCC(OCCN5CCCCC5)C4)c3s2)c(=O)[nH]1 (stereo not drawn) [Example 8, 5-[4-[3-[2-(1-Piperidyl)ethoxy]pyrrolidin-1-yl]thieno[3,2-d]pyrimidin-6-yl]-1H-pyrimidine-2,4-dione] | 34.7 nM | 20.1 nM | 50.7 nM
16 | O=c1[nH]cc(-c2cc3c(N4CCC(OCCN5CCCCC5)C4)ncnn3c2)c(=O)[nH]1 (stereo not drawn) [Example 10, 5-[4-[3-[2-(1-Piperidyl)ethoxy]pyrrolidin-1-yl]pyrrolo[2,1-f][1,2,4]triazin-6-yl]pyrimidine-2,4-diol] | 51.9 nM | 20.7 nM | 29.6 nM
17 | O=c1[nH]cc(-c2cc3c(N4CCC(OCCN5CCC(F)(F)CC5)C4)ncnn3c2)c(=O)[nH]1 (stereo not drawn) [Example 10.1, 5-[4-[3-[2-(4,4-Difluoro-1-piperidyl)ethoxy]pyrrolidin-1-yl]pyrrolo[2,1-f][1,2,4]triazin-6-yl]-1H-pyrimidine-2,4-dione] | 61.1 nM | 85.4 nM | 50.1 nM
18 | CC1(C)CN(c2ncnn3cc(-c4c[nH]c(=O)[nH]c4=O)cc23)CC1(F)F [Example 10.2, 5-[4-(3,3-Difluoro-4,4-dimethyl-pyrrolidin-1-yl)pyrrolo[2,1-f][1,2,4]triazin-6-yl]-1H-pyrimidine-2,4-dione] | 312 nM | 130 nM | 1590 nM
19 | COC1CN(c2ncc(Cl)n3nc(-c4c[nH]c(=O)[nH]c4=O)cc23)CC1(F)F (stereo not drawn) [Example 25.14, 5-[7-Chloro-4-(3,3-difluoro-4-methoxy-pyrrolidin-1-yl)pyrazolo[1,5-a]pyrazin-2-yl]-1H-pyrimidine-2,4-dione] | 7 nM | – | 20 nM
20 | CC1(C)CCN(c2ncc(Cl)n3nc(-c4c[nH]c(=O)[nH]c4=O)cc23)C1 [Example 25.16, 5-[7-chloro-4-(3,3-dimethylpyrrolidin-1-yl)pyrazolo[1,5-a]pyrazin-2-yl]-1H-pyrimidine-2,4-dione] | 11 nM | – | 78 nM
21 | CC1(C)CCN(c2ncc(F)n3nc(-c4c[nH]c(=O)[nH]c4=O)cc23)C1 [Example 25.17, 5-[4-(3,3-dimethylpyrrolidin-1-yl)-7-fluoro-pyrazolo[1,5-a]pyrazin-2-yl]-1H-pyrimidine-2,4-dione] | 39 nM | – | 450 nM
